≈ marks a conversion by molar mass, not a printed value.
Assays:
Format in all cases: in vivo
Culex pipiens L. = assay: Culex test (mature larvae, loss of 50% of test animals); settings: concentration producing loss of 50% of test animals, mixtures of isomers, read-out: IC-50 eclos.
Method: (§1) The biological tests are examplified by tests on Tenebrio molitor L, Galleria mellonella L. and Culex pipiens L.
The compounds are tested on mature larvae. The concentration (IC-50 eclos.) is given in ppm.

Tenebrio molitor L = assay: Tenebrio test (topical application to pupae, inhibition of adult characters); settings: topical in acetone to abdomen of 0.5 to 2 hours old pupae; 27° C, 70% RH; mixtures of isomers
Method: as §1
The material in question is applied topically to the abdomen of 0.5 to 2 hours old pupae of the said species, as a solution in acetone. The pupae are held at 27° C and 70% RH, ecdysis occuring 5 to 7 days later. The degree of inhibition of adult characters is referred to an arbitrary scale, where a morphologically perfect adult is given the character 0%, and a perfect second pupae 100%.

Galleria mellonella L. = assay: Galleria test (eggs on impregnated filter paper, prevention of eclosion); settings: amount preventing eclosion of 50% of the eggs, mixtures of isomers
Method: as §1
The test is performed on eggs deposited on impregnated filter paper by the mother moth. The data given in table 2, are the amount necessary for preventing eclosion of 50% of the eggs. The amount (IC-50 eclos.) is given in mg./65 cm^2.

Compound	LC50 (Culex pipiens L.) [µg/mL]	ID-50 morph. (Tenebrio molitor L) [μg/pupa]	IC-50 eclos. (Galleria mellonella L.) [mg/65 cm^2]
CC(C)=CCCC(C)=CCOCc1ccncc1 [Compound 3, 3,7-dimethyl-2,6-octadien-1-yl-(4-pyridyl)methylether]	> 10	–	–
CC(C)=CCCC(C)=CCOCc1ccccn1 [Compound 1, 3,7-dimethyl-2,6-octadien-1-yl-(2-pyridyl)methylether]	5 (≈ 20.4 µM)	–	–
CCc1ccc(COCC=C(C)CCC2OC2(C)C)nc1 (stereo not shown) [Compound 6, 6,7-epoxy-3,7-dimethyl-2-octen-1-yl-(5-ethyl-2-pyridyl)methylether]	0.005 (≈ 0.0173 µM)	–	–
CC(C)=CCCC(C)=CCOCc1cccc(C)n1 [Compound 8, 3,7-dimethyl-2,6-octadien-1-yl-(6-methyl-2-pyridyl)methylether]	10 (≈ 38.6 µM)	4	> 10
CC(=CCOCc1ccccn1)CCC1OC1(C)C (stereo not shown) [Compound 4, 6,7-epoxy-3,7-dimethyl-2-octen-1-yl-(2-pyridyl)methylether]	9 (≈ 34.4 µM)	–	–
